Measurements from PubChem BioAssay (NCI).
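Cultured in 96-well plates, cells were exposed to test compound for 48 hours across five concentrations. GI50 marks 50% less growth. Definition used: TGI = concentration required for complete inhibition of growth.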

Key:
Assay in all cases: NCI-60 cell line screen, 48 h
PC-3 prostate = system: PC-3 prostate
HCC-2998 colon = system: HCC-2998 colon
TK-10 renal = system: TK-10 renal
MDA-MB-231 breast = system: MDA-MB-231 breast
SF-268 CNS = system: SF-268 CNS
HOP-62 NSCLC = system: HOP-62 NSCLC
HS 578T breast = system: HS 578T breast
NCI-H226 lung = system: NCI-H226 lung
U251 CNS = system: U251 CNS
CCRF-CEM leukemia = system: CCRF-CEM leukemia
A549 NSCLC = system: A549 NSCLC
BT-549 breast = system: BT-549 breast
SF-295 CNS = system: SF-295 CNS
SK-OV-3 ovarian = system: SK-OV-3 ovarian
T-47D breast = system: T-47D breast
MCF7 breast = system: MCF7 breast
DU-145 prostate = system: DU-145 prostate
SNB-75 CNS = system: SNB-75 CNS
NCI-H460 lung = system: NCI-H460 lung
RXF 393 renal = system: RXF 393 renal
UACC-257 melanoma = system: UACC-257 melanoma
UO-31 renal = system: UO-31 renal
OVCAR-5 ovarian = system: OVCAR-5 ovarian
UACC-62 melanoma = system: UACC-62 melanoma
CAKI-1 renal = system: CAKI-1 renal
SK-MEL-2 melanoma = system: SK-MEL-2 melanoma
MDA-MB-435 = system: MDA-MB-435
KM12 colon = system: KM12 colon
SN12C renal = system: SN12C renal
SNB-19 CNS = system: SNB-19 CNS
ACHN renal = system: ACHN renal
SK-MEL-28 melanoma = system: SK-MEL-28 melanoma
SF-539 CNS = system: SF-539 CNS
786-0 renal = system: 786-0 renal
SK-MEL-5 melanoma = system: SK-MEL-5 melanoma

Q: What does the source list for CC(=O)OC[C@H]1OC(O)C=C[C@@H]1OC(C)=O (stereo not given in full)?
A: GI50 (PC-3 prostate): 89.5 µM; TGI (PC-3 prostate): 170 µM; GI50 (HCC-2998 colon): 91.7 µM; TGI (HCC-2998 colon): 171 µM; GI50 (TK-10 renal): 98.1 µM; TGI (TK-10 renal): 179 µM; GI50 (MDA-MB-231 breast): 87.7 µM; TGI (MDA-MB-231 breast): 183 µM; GI50 (SF-268 CNS): 109 µM; TGI (SF-268 CNS): 236 µM; GI50 (HOP-62 NSCLC): 110 µM; TGI (HOP-62 NSCLC): 227 µM; GI50 (HS 578T breast): 107 µM; TGI (HS 578T breast): 263 µM; GI50 (NCI-H226 lung): 119 µM; TGI (NCI-H226 lung): 267 µM; GI50 (U251 CNS): 95.1 µM; TGI (U251 CNS): 187 µM; GI50 (CCRF-CEM leukemia): 17.7 µM; TGI (CCRF-CEM leukemia): 89.8 µM; GI50 (A549 NSCLC): 767 µM; TGI (A549 NSCLC): 2490 µM; GI50 (BT-549 breast): 89.2 µM; TGI (BT-549 breast): 162 µM; GI50 (SF-295 CNS): 102 µM; TGI (SF-295 CNS): 198 µM; GI50 (SK-OV-3 ovarian): 145 µM; TGI (SK-OV-3 ovarian): 407 µM; GI50 (T-47D breast): 33.3 µM; TGI (T-47D breast): 161 µM; GI50 (MCF7 breast): 23.5 µM; TGI (MCF7 breast): 123 µM; GI50 (DU-145 prostate): 71.6 µM; TGI (DU-145 prostate): 143 µM; GI50 (SNB-75 CNS): 86.3 µM; TGI (SNB-75 CNS): 159 µM; GI50 (NCI-H460 lung): 155 µM; TGI (NCI-H460 lung): 488 µM; GI50 (RXF 393 renal): 96.8 µM; TGI (RXF 393 renal): 195 µM; GI50 (UACC-257 melanoma): 87.1 µM; TGI (UACC-257 melanoma): 183 µM; GI50 (UO-31 renal): 89.5 µM; TGI (UO-31 renal): 168 µM; GI50 (OVCAR-5 ovarian): 95 µM; TGI (OVCAR-5 ovarian): 169 µM; GI50 (UACC-62 melanoma): 92 µM; TGI (UACC-62 melanoma): 176 µM; GI50 (CAKI-1 renal): 91.1 µM; TGI (CAKI-1 renal): 170 µM; GI50 (SK-MEL-2 melanoma): 91.3 µM; TGI (SK-MEL-2 melanoma): 177 µM; GI50 (MDA-MB-435): 82.4 µM; TGI (MDA-MB-435): 155 µM; GI50 (KM12 colon): 93.9 µM; TGI (KM12 colon): 177 µM; GI50 (SN12C renal): 88 µM; TGI (SN12C renal): 168 µM; GI50 (SNB-19 CNS): 91.1 µM; TGI (SNB-19 CNS): 170 µM; GI50 (ACHN renal): 81.5 µM; TGI (ACHN renal): 151 µM; GI50 (SK-MEL-28 melanoma): 80.4 µM; TGI (SK-MEL-28 melanoma): 153 µM; GI50 (SF-539 CNS): 77.8 µM; TGI (SF-539 CNS): 155 µM; GI50 (786-0 renal): 94.1 µM; TGI (786-0 renal): 178 µM; GI50 (SK-MEL-5 melanoma): 89 µM; TGI (SK-MEL-5 melanoma): 161 µM
